The target in data set [1] is T1, Peroxisome proliferator-activated receptor gamma (Homo sapiens, UniProt P37231).
T1 sequence (P37231 whole entry): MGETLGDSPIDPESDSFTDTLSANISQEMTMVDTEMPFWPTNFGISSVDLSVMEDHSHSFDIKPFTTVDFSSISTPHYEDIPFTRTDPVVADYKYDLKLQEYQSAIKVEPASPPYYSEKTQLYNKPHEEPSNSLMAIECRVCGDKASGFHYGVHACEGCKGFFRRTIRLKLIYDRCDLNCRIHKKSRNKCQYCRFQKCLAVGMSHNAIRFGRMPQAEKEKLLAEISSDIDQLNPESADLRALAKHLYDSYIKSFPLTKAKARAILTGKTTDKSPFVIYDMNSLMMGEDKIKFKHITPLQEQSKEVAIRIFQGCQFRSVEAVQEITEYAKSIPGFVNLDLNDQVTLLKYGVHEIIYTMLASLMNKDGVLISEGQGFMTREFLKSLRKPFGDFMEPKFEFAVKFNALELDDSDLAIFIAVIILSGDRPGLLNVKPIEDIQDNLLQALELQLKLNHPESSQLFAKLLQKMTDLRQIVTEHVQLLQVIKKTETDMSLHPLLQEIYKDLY
Nature of the data set: Transactivation of human Gal4-fused PPARgamma LBD expressed in African green monkey COS7 cells after 24 hrs by luciferase reporter gene assay. Type of data set: cell-based. On the technique in general: A reporter such as luciferase makes a cellular process visible.

In data set [2] the test system is Mus musculus. The data set is described as follows: Toxicity in ob/ob mouse assessed as change in body weight at 8.4 uM/kg administered via oral gavage daily for 4 days measured on day 5 relative to control. Type of data set: organism-based. Conditions: in vivo, 96 h, 8.4 µmol/kg.
The test system of data set [3] is Mus musculus. The data set is described as follows: Anti-diabetic activity in ob/ob mouse assessed as change in serum glucose levels at 8.4 uM/kg administered via oral gavage daily for 4 days measured on day 5 relative to control. In kind it is functional.
Data set [4] has as its system Mus musculus. Nature of the data set: Anti-diabetic activity in ob/ob mouse assessed as change in serum insulin levels at 8.4 uM/kg administered via oral gavage daily for 4 days measured on day 5 relative to control. Type of data set: functional.
The test system of data set [5] is Mus musculus. Nature of the data set: Anti-diabetic activity in ob/ob mouse assessed as change in serum triglyceride levels at 8.4 uM/kg administered via oral gavage daily for 4 days measured on day 5 relative to control. Type of data set: functional.
A short description of data set [6]: Modulation of SGK1 mRNA expression in HCCD cells at 20 uM after 24 hrs by RT-PCR method relative to control. In kind it is functional, Homo sapiens.
The target in data set [7] is T2, Peroxisome proliferator-activated receptor delta (Homo sapiens) (UniProt Q03181).
T2 sequence (whole entry): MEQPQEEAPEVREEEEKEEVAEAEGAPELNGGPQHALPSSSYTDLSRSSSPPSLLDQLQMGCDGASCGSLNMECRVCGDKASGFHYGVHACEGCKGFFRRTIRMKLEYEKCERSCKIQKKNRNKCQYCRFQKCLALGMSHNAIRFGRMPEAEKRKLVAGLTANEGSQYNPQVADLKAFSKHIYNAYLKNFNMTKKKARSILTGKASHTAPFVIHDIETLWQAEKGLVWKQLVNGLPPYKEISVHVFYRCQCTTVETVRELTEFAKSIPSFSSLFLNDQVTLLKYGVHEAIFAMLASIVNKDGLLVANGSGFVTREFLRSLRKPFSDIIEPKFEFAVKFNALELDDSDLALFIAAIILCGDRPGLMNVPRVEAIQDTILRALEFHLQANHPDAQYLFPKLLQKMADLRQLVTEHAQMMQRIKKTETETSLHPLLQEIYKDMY
The data set is described as follows: Transactivation of human PPARdelta at 10 uM.

In data set [8] the target is T3, Peroxisome proliferator-activated receptor alpha (Homo sapiens, UniProt Q07869).
T3 sequence (Q07869 whole entry): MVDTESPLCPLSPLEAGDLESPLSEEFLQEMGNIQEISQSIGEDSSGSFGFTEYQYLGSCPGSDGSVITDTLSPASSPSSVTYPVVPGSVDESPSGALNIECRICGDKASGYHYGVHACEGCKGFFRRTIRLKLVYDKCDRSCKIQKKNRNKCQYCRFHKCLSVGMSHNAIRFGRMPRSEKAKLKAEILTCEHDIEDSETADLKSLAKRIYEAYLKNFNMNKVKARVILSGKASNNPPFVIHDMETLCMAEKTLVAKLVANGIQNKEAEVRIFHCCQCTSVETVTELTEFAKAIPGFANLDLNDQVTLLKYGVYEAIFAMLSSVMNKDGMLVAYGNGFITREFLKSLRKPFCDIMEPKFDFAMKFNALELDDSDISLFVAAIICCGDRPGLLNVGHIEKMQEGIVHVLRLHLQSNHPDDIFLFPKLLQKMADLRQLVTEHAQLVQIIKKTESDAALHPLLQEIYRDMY
Nature of the data set: Transactivation of human Gal4-fused PPARalpha LBD expressed in African green monkey COS7 cells after 24 hrs by luciferase reporter gene assay. Type of data set: cell-based.

In data set [9] the target is T4, Peroxisome proliferator-activated receptor alpha (Homo sapiens) (UniProt Q07869).
T4 sequence (whole entry): T3 sequence (Q07869 whole entry)
Nature of the data set: Transactivation of human Gal4-fused PPARalpha LBD expressed in African green monkey COS7 cells after 24 hrs by luciferase reporter gene assay relative to WY14643. Type of data set: cell-based.

Data set [10] concerns the target T5, NAD-dependent protein deacetylase sirtuin-1 (Homo sapiens) (UniProt Q96EB6).
T5 sequence (whole entry): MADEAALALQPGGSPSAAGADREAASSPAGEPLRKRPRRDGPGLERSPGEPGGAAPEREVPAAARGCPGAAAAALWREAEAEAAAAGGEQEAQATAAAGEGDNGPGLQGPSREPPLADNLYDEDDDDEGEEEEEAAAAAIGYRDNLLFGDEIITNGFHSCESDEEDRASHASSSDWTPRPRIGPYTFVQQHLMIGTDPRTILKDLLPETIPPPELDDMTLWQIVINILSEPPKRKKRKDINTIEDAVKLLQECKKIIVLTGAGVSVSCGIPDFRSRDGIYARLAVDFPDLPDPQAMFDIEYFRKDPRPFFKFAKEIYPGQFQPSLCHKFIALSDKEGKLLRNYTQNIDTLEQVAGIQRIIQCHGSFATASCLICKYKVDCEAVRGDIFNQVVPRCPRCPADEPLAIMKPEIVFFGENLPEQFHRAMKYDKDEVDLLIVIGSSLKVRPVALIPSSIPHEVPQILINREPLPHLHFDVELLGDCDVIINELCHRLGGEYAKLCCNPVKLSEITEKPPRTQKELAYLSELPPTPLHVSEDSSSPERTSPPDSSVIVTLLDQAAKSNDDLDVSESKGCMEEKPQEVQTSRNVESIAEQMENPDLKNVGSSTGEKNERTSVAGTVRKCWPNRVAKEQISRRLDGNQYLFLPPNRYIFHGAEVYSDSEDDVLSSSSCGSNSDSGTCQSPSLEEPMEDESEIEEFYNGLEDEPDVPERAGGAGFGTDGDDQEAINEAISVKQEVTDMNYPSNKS
The data set is described as follows: Activation of recombinant human SIRT1 at 10 uM using C-terminal AMC labeled Arg-His-Lys-Lys (Ac) as substrate after 30 mins by FLUOR DE LYS fluorescent assay relative to control.

What is called EC50 is the midpoint of the concentration-response curve.

The source made the active and inactive calls. The rule behind the calls is not given here.

With `CCOC(=O)C(Cc1ccc(OCCn2c(=O)sc3cc(/C=C/c4cc(OC)cc(OC)c4)ccc32)cc1)OCC(F)(F)F` (centres undefined), the EC50 stood at 0.05 µM in data set [1] (read-out: EC50) and 10 µM in data set [8]. Moreover, the Activity is 61% in the data set on Mus musculus [2]; -11% with Mus musculus [3]; -14% with Mus musculus [4]; -3% in the data set on Mus musculus [5]; -62% in [6]; -7% in [10]. For the same compound, the outcome in data set [7] was inactive. The same compound returned an Emax in data set [9] of 136%.
For `CCOC(=O)C(Cc1ccc(OCCn2c(=O)sc3cc(/C=C/c4cc(OC)cc(OC)c4)ccc32)cc1)OCC` (centres undefined), the EC50 in [1] (read-out: EC50) is less than 0.01 µM; in [8] it was 2 µM. Besides, the Activity in the data set with Mus musculus [2] was 79%; with Mus musculus [3], -36%; in the data set on Mus musculus [4] it was -28%; in the data set with Mus musculus [5], -35%; in data set [6], -23%; in data set [10] it was 13%. Besides, the outcome in [7] was inactive. The compound also came in with an Emax in data set [9] of 149%.
Regarding `COc1cc(/C=C/C(=O)c2ccc3c(c2)sc(=O)n3CCOc2ccc(CC(OCC(F)(F)F)C(=O)O)cc2)cc(OC)c1` (centres undefined), the EC50 in [1] (read-out: EC50) was determined as 1 µM; in data set [8] it was 10 µM. Besides, the Activity in the data set on Mus musculus [2] is 142%; in the data set with Mus musculus [3] it was -14%; in the data set with Mus musculus [4] it was 28%; with Mus musculus [5] it was -18%; in data set [6] it was 820%; in data set [10], 24%. The outcome in data set [7] was inactive. This compound yielded an Emax in [9] of 36%.
Turning to `CCOC(=O)C(Cc1ccc(OCCn2c(=O)sc3cc(C(=O)/C=C/c4cc(OC)cc(OC)c4)ccc32)cc1)OCC(F)(F)F` (centres undefined), the EC50 in data set [1] (read-out: EC50) is 0.2 µM; in [8], 10 µM. The Activity is 93% with Mus musculus [2]; 2% in the data set with Mus musculus [3]; 17% in the data set on Mus musculus [4]; -24% in the data set with Mus musculus [5]; -53% in data set [6]; 0% in data set [10]. In addition, in [7], the outcome was inactive. For the same compound, the Emax in data set [9] came to 21%.
Regarding `CCOC(Cc1ccc(OCCn2c(=O)sc3cc(/C=C/c4cc(OC)cc(OC)c4)ccc32)cc1)C(=O)O` (centres undefined), the EC50 is less than 0.01 µM in [1] (read-out: EC50) and 1 µM in data set [8]. The Activity with Mus musculus [2] is 192%; with Mus musculus [3], -42%; in the data set on Mus musculus [4], -33%; in the data set with Mus musculus [5] it was -56%. Also, in [7], the outcome was inactive. Moreover, the Emax in [9] was 494%.
Turning to `O=C(O)C(Cc1ccc(OCCn2c(=O)sc3cc(/C=C/c4cc(O)cc(O)c4)ccc32)cc1)OCC(F)(F)F` (centres undefined), the EC50 in data set [1] (read-out: EC50) is 0.2 µM; in data set [8] it was 10 µM. Moreover, the Activity in the data set with Mus musculus [2] is 32%; with Mus musculus [3], -40%; in the data set on Mus musculus [4], -43%; with Mus musculus [5], -39%; in data set [6], -57%; in [10], 128%. For the same compound, in data set [7], the result was inactive. The same compound returned an Emax in data set [9] of 100%.
For the compound `CCOC(Cc1ccc(OCCn2c(=O)sc3cc(/C=C/c4cc(O)cc(O)c4)ccc32)cc1)C(=O)O` (centres undefined), the EC50 in data set [1] (read-out: EC50) was 1 µM; in [8], 10 µM. Besides, the Activity in the data set on Mus musculus [2] is 110%; in the data set on Mus musculus [3], -45%; in the data set with Mus musculus [4], -40%; with Mus musculus [5], -52%; in [6], -39%; in [10], 92%. In addition, in [7], the outcome was inactive. The same compound came in with an Emax in data set [9] of 29%.
Regarding `CCOC(=O)C(Cc1ccc(OCCn2c(=O)sc3cc(/C=C/c4cc(O)cc(O)c4)ccc32)cc1)OCC(F)(F)F` (centres undefined), the EC50 is 0.08 µM in [1] (read-out: EC50) and 10 µM in data set [8]. In addition, the Activity was 56% in the data set on Mus musculus [2]; -40% in the data set on Mus musculus [3]; -41% with Mus musculus [4]; -25% with Mus musculus [5]; 83% in [6]; -28% in data set [10]. The outcome in data set [7] was inactive. In addition, the Emax in data set [9] was 149%.
Regarding `CCOC(Cc1ccc(OCCn2c(=O)sc3cc(/C=C/c4cc(OC)cc(OC)c4)ccc32)cc1)C(=O)NC` (centres undefined), the EC50 is less than 0.01 µM in [1] (read-out: EC50) and 10 µM in data set [8]. In addition, the Activity in the data set on Mus musculus [2] is 111%; with Mus musculus [3], -14%; in the data set on Mus musculus [4], -36%; in the data set on Mus musculus [5], -29%; in [6], -43%; in data set [10], 17%. Further, the result in [7] was inactive. In [9], this compound displayed an Emax of 0%.
As to `Cc1cccc(Nc2cc(Cl)nc(SCC(=O)O)n2)c1C` [PIRINIXIC ACID], in [1], the EC50 result is given as “Not Active”.
Regarding `CCOC(=O)C(Cc1ccc(OCCn2c(=O)sc3cc(C(=O)/C=C/c4cc(O)cc(O)c4)ccc32)cc1)OCC(F)(F)F` (centres undefined), the EC50 in data set [1] (read-out: EC50) came out at 0.03 µM; in data set [8], 10 µM. The Activity in the data set on Mus musculus [2] is 75%; in the data set on Mus musculus [3], -5%; with Mus musculus [4], 11%; with Mus musculus [5] it was -8%; in [6], 180%; in [10], 24%. The outcome in [7] was inactive. This compound also had an Emax in data set [9] of 12%.
As for `CCOC(Cc1ccc(OCCn2c(=O)sc3cc(C(=O)/C=C/c4cc(OC)cc(OC)c4)ccc32)cc1)C(=O)O` (centres undefined), the values for the EC50 in data set [1] (read-out: EC50) and in data set [8] were 1 µM and 10 µM, respectively. For the same compound, the Activity in the data set with Mus musculus [2] was 150%; in the data set on Mus musculus [3] it was -27%; in the data set on Mus musculus [4] it was 18%; with Mus musculus [5], -31%; in data set [6], 736%; in data set [10], 23%. In addition, in [7], the outcome was inactive. Further, the Emax in data set [9] was 53%.
